{
  "source": "patent US10011555B2",
  "about": "“Methods of treating Parkinson's disease” (University of Macau, priority 2013, dated 2018)",
  "key": {"[1]": {"test_system": "PC12 cells", "experiment": "6-OHDA-induced PC12 cell damage and cytotoxicity on PC12 cells, cell viability by MTT", "format": "cell-based, Rat", "protocol": "Rat pheochromocytoma cells (PC12) cells were seeded in c100 cm dishes at a density of 1.5˜2×10^6 cells/dish. After culturing in a medium with a low serum level (F-12K medium with 0.5% FBS) for 24 hours, the cells were pretreated with serial concentrations of compound 1 from 6 μM to 50 μM for 12 hours. The cells were then exposed to 1 mM 6-OHDA for 2 hours. Cell viability of cells was assessed similarly as described in Example 5."}, "[2]": {"test_system": "primary cerebellar granule neurons (CGNs)", "experiment": "MPP+-induced primary CGNs damage, cell viability by MTT", "format": "cell-based, Sprague-Dawley rats", "conditions": "pre-treated 6 μM to 50 μM for 2 hours, then 150 μM MPP+ for 36 hours", "protocol": "Primary cerebellar granule neurons (CGNs) were prepared from 8 days old Sprague-Dawley rats, as described in a previous publication (Du, Bales et al. 1997). CGNs cultured in vitro for 7 days were pre-treated with serial concentrations of compounds 1-5 from 6 μM to 50 μM respectively for 2 hours, vehicle group was incubated with 0.1% DMSO. The cells were then exposed to 150 μM MPP^+ for 36 hours. For assessment of the cell viability, 15 μl of 5 mg/ml MTT solution was added to each well containing cell in 100 μl of medium, and the plates were incubated for 4 hours in a humidified incubator at 37° C. After incubation, 100 μl of absolute DMSO was added and incubated for 10 min. Absorbance at 570 nm of each well was measured with a microplate reader."}, "[3]": {"test_system": "MPTP-injected mice", "experiment": "Behavioral testing (pole, rotarod, footprint) in MPTP-injected mice", "format": "in vivo, C57BL/6J mice", "conditions": "5, 10 and 20 mg/kg i.g., 7 days, MPTP 20 mg/kg i.p. x4", "protocol": "Adult male C57BL/6J mice (8-10 weeks of age, 18-22 g) were used in this study. The animals were maintained in 12/12 h light/dark cycle and allowed access to food and water ad libitum. They were allowed to acclimate for 7 days before treatment. […] Then the mice were injected intraperitoneally (i.p.) with 20 mg/kg MPTP hydrochloride (Sigma Aldrich, St. Louis, Mo.), at 2 h internal for total 4 injections. Normal control group were received saline (0.1 mL/10 g) by i.p. One hour prior each MPTP injection, compound 1 (5, 10 and 20 mg/kg), rasagiline (1 mg/kg) and equal volume of vehicle (olive oil, 0.1 mL/10 g) were administrated by i.g. Then, compound 1, rasagiline or vehicle was given by i.g. once per day for total 7 days (day 1-7). Each of six groups was comprised of 10 mice. […] All the tests were done between 9 am and 2 pm under normal animal room lighting. The pole test was performed to detect impairment of limb movement. A table tennis ball (5 cm diameter) was equipped on the top of a vertical pole (55 cm length and 1 cm diameter). The pole was wrapped with a double layer of gauze to avoid slipping. The animal was placed head upward on the table tennis ball. […] The system logs the fall as the end of the experiment for that mouse, and the total time on the rotarod was recorded. […] The average retention time on the rod was calculated. […] Their footsteps were recorded on a white absorbing paper."}, "[4]": {"test_system": "primary cerebellar granule neurons (CGNs)", "experiment": "Synergistic neuroprotective effect of compound 1 and chrysin on MPP+-induced primary CGNs damage", "format": "cell-based, Sprague-Dawley rats", "conditions": "25 and 50 μM of compound 1, p<0.05", "protocol": "Primary cerebellar granule neurons (CGNs) were prepared from 8 days old Sprague-Dawley rats as described (Zhang et al., 2012). […] The cell viability was estimated similarly as in Example 5.\nCGNs were also co-treated with compound 1 and chrysin to explore the pharmacological interaction between two compounds."}, "[5]": {"test_system": "zebrafish dopaminergic neurons", "experiment": "MPTP-induced dopaminergic neuron loss in zebrafish, whole-mount TH immunostaining", "format": "in vivo", "conditions": "co-treatment with 200 μM MPTP for 48 hours", "protocol": "Zebrafish embryo was dechorinated at 1 day post fertilization (dpf) and was cultured under co-treatment of 200 μM MPTP and various concentrations of compound 1 for 48 hours. Afterwards, zebrafish was fixed in 4% paraformaldehyde in PBS for 5 hours, rinsed and stored at −20° C. in 100% EtOH. Whole-mount immunostaining was done by standard methods (Bitzur, Kam et al. 1994). Further, compound 1 can protect MPTP-induced dopaminergic neuron loss in zebrafish in a dose-dependent manner with Emax at the concentration of 5 μM as shown in FIG. 3B in which the results were expressed quantitatively as percentages of area of TH-positive cells in comparison to untreated control group."}, "[6]": {"test_system": "zebrafish larvae", "experiment": "MPTP-induced reduction of total distance traveled of zebrafish larvae", "format": "in vivo", "conditions": "3 dpf larvae co-treated with 200 μM MPTP for 4 days", "protocol": "The 3 dpf zebrafish larvae were co-treated with 200 μM MPTP and various concentrations of compound 1 for 4 days. At 7 dpf, the total distance the larvae traveled was recorded using a 96-well plate (with 1 fish/well and 12 larvae per group) filled with 200 μl embryo medium. Larvae were allowed to accommodate in the system for an hour before data acquisition. The swimming pattern of each larva was recorded for 10 min in 3 times, with each record session separated by 10 min. The total distance traveled was estimated as the distance (in mm) that the larva had moved during one session (10 min)."}, "[7]": {"test_system": "TH-positive dopaminergic neurons in the SNpc", "experiment": "TH immunohistochemistry of SNpc in MPTP-injected mice", "format": "in vivo, C57BL/6J mice", "protocol": "Adult male C57BL/6J mice (8-10 weeks of age, 18-22 g) were used in this study. The animals were maintained in 12/12 h light/dark cycle and allowed access to food and water ad libitum. They were allowed to acclimate for 7 days before treatment. […] Then the mice were injected intraperitoneally (i.p.) with 20 mg/kg MPTP hydrochloride (Sigma Aldrich, St. Louis, Mo.), at 2 h internal for total 4 injections. Normal control group were received saline (0.1 mL/10 g) by i.p. One hour prior each MPTP injection, compound 1 (5, 10 and 20 mg/kg), rasagiline (1 mg/kg) and equal volume of vehicle (olive oil, 0.1 mL/10 g) were administrated by i.g. Then, compound 1, rasagiline or vehicle was given by i.g. once per day for total 7 days (day 1-7). Each of six groups was comprised of 10 mice. Mice were sacrificed for tissue preparation on the day 9 as described in FIG. 6. Mice in each group were anesthetized and perfused intracardially with 0.9% sodium chloride containing heparin, and then fixed with 4% paraformaldehyde (PFA). […] The results were analyzed by counting the numbers of TH-positive cells at ×10 magnifications on a stereomicroscope (BX51, Olympus Corp. Japan). TH-positive cells in 8 position-matched sections of each mouse were counted manually by operator who was blinded to the drug treatment. […]"}},
  "data": [
    {"molecule": "O=c1cc(-c2ccccc2)oc2cc(O)c(O)c(O)c12", "note": "[baicalein, reference compound]", "values": [
      {"measurement": "protection of PC12 cells against 6-OHDA-induced neuronal damage", "setting": "[1]; positive control at 100 μM", "result": "obviously protected"}
    ]},
    {"molecule": "CC(C)[C@H](CCC(=O)O)C1=CC(C)(O)CCC1=O", "note": "(stereo partly drawn) [Compound 2, (4S)-4-(3-hydroxy-3-methyl-6-oxocyclohex-1-enyl)-5-methylhexanoic acid]", "values": [
      {"measurement": "concentration of Emax of neuroprotective effect on MPP+-induced primary SD rat CGNs damage", "setting": "[2]", "result": 50, "unit": "µM"}
    ]},
    {"molecule": "Cc1ccc(O)c(C(CCC(=O)O)C(C)C)c1", "note": "(racemic) [Compound 5, 4-(2-hydroxy-5-methylphenyl)-5-methylhexanoic acid]", "values": [
      {"measurement": "concentration of Emax of neuroprotective effect on MPP+-induced primary SD rat CGNs damage", "setting": "[2]", "result": 50, "unit": "µM"}
    ]},
    {"molecule": "CC(C)[C@@H](CCC(=O)O)C1=CC(C)(O)CCC1=O", "note": "(stereo partly drawn) [Compound 3, (4R)-4-(3-hydroxy-3-methyl-6-oxocyclohex-1-enyl)-5-methylhexanoic acid]", "values": [
      {"measurement": "concentration of Emax of neuroprotective effect on MPP+-induced primary SD rat CGNs damage", "setting": "[2]", "result": 25, "unit": "µM"}
    ]},
    {"molecule": "Cc1ccc(O)c([C@H](CCC(=O)O)C(C)C)c1", "note": "[Compound 1, (R)-4-(2-hydroxy-5-methylphenyl)-5-methylhexanoic acid]", "values": [
      {"measurement": "concentration of Emax of neuroprotective effect on MPP+-induced primary SD rat CGNs damage", "setting": "[2]", "result": 50, "unit": "µM"},
      {"measurement": "concentration of maximum efficacy (Emax) of neuroprotective effect on 6-OHDA-induced PC12 cell damage", "setting": "[1]; 1 mM 6-OHDA for 2 hours", "result": 50, "unit": "µM"},
      {"measurement": "cytotoxicity on PC12 cells", "setting": "[1]; all tested concentrations (6 μM to 50 μM), 12 hours", "result": "did not exhibit any cytotoxicity"},
      {"measurement": "effect on 6-OHDA cytotoxicity to PC12 cells", "setting": "[1]; pretreated 6 μM to 50 μM for 12 hours, then 1 mM 6-OHDA for 2 hours", "result": "could alleviate the cytotoxic effect in a dose-dependent manner"},
      {"measurement": "effect on movement abnormalities (pole test, foot printing duration and stride length, rotarod)", "setting": "[3]", "result": "largely corrected the movement abnormalities in a dose-dependent manner"},
      {"measurement": "cell viability vs MPP+ alone", "setting": "[4]", "result": "significantly enhanced"},
      {"measurement": "effect on MPTP-induced DA neuron injury", "setting": "[5]", "result": "attenuated MPTP-induced DA neuron injury in a dose-dependent manner"},
      {"measurement": "concentration of Emax of protection against MPTP-induced dopaminergic neuron loss in zebrafish", "setting": "[5]; area of TH-positive cells", "result": 5, "unit": "µM"},
      {"measurement": "effect on MPTP-induced reduction of total distance traveled", "setting": "[6]", "result": "attenuated MPTP-induced reduction of total distance traveled of the larvae in a dose dependent manner"},
      {"measurement": "effect on MPTP-induced TH-positive cell body loss in SNpc", "setting": "[7]; compound 1 5, 10 and 20 mg/kg i.g., pre- and post-treatment, 7 days", "result": "significantly reduced the MPTP-induced TH-positive cell body loss in a dose-dependent manner"}
    ]},
    {"molecule": "C#CCN[C@@H]1CCc2ccccc21", "note": "[rasagiline, reference compound]", "values": [
      {"measurement": "effect on MPTP-induced TH-positive cell body loss in SNpc", "setting": "[7]; rasagiline 1 mg/kg i.g., same schedule", "result": "prevented against the MPTP-induced TH-positive cell body loss"}
    ]},
    {"molecule": "Cc1ccc(O)c([C@@H](CCC(=O)O)C(C)C)c1", "note": "[Compound 4, (S)-4-(2-hydroxy-5-methylphenyl)-5-methylhexanoic acid]", "values": [
      {"measurement": "concentration of Emax of neuroprotective effect on MPP+-induced primary SD rat CGNs damage", "setting": "[2]", "result": 12, "unit": "µM"}
    ]}
  ]
}
